In US9023821B2, “Use of MicroRNA for treating diseases associated with a dysfunction of the cilia in multiciliated epithelial cells” (Centre National de la Recherche Scientifique, priority 2009, dated 2015):

Tested on: human airway epithelial cells (HAECs)
Test: High-throughput sequencing (HTS) of miRNAs at four stages of differentiation of HAECs
Conditions: for Modulation (ratio of the level of intensity of expression in log2 in two stages of differentiation), D7 − D0 / Modulation (ratio of the level of intensity of expression in log2 in two stages of differentiation), FC − D7 / Modulation (ratio of the level of intensity of expression in log2 in two stages of differentiation), WD − D0 / Modulation (ratio of the level of intensity of expression in log2 in two stages of differentiation), WD − FC / Abundance (%), D0 / Level of intensity of expression in log2, D0 / Abundance (%), D7 / Level of intensity of expression in log2, D7 / Abundance (%), FC / Level of intensity of expression in log2, FC / Abundance (%), WD / Level of intensity of expression in log2, WD: HTS; for Abundance (%), D0: ALI-D0; for Level of intensity of expression in log2, D0: ALI-D0 (proliferation); for Abundance (%), D7: ALI-D7; for Level of intensity of expression in log2, D7: ALI-D7 (proliferation and polarization); for Abundance (%), FC: ALI-FC; for Level of intensity of expression in log2, FC: ALI-FC (start of ciliogenesis); for Abundance (%), WD: ALI-WD; for Level of intensity of expression in log2, WD: ALI-WD (wholly differentiated epithelium); for Level of intensity of expression in log2 At the differentiated stage (WD) measured in HTS: healthy human airway epithelial tissue
From the text: The total RNAs were extracted from HAECs cultivated at the air-liquid interface at four stages of differentiation: ALI-D0 (0 day), ALI-D7 (7 days), ALI-FC (during appearance of the first cilia at about 14 days) and ALI-WD (wholly differentiated at about 21 days). The cells are lysed in reagent with Trizol® (Invitrogen). The total RNAs containing small RNAs and microRNAs are purified on Qiagen RNEasy columns (Qiagen) according to the supplier's instructions.
The total RNAs containing small RNAs and microRNAs are isolated as before. The procedure is based on the Applied Biosystems Ligase-Enhanced Genome Detection technology (LEGenD™); the SOLiD™ Small RNA Expression kit (Applied Biosystems, France) was used. With this method it is possible to convert the small RNAs of a sample into a library of double-stranded DNA; it was developed by Applied Biosystems SOLiD™ System for a new generation of high-throughput sequencing.
The high-throughput sequencing of the microRNAs was carried out according to the supplier's recommendations. Briefly, the total RNAs containing the small RNAs are hybridized (65° C., 10 min, then at 16° C., 5 min) and ligated (16° C., 2-16 h in a thermocycler) with the Adaptor Mix A for producing a matrix for sequencing the 5′ end of the small RNAs, or with the Adaptor Mix B for sequencing the 3′ end. The samples are then reverse-transcribed (42° C., 30 min) to synthesize the complementary DNA (cDNA). The library of small RNAs is amplified by PCR and after migration on polyacrylamide gel the amplified small RNAs are cut out and extracted from the gel according to their size (length of about 105-150 bases, according to the supplier's instructions), eluted and resuspended in nuclease-free water. The concentration of nucleic acids is then measured and normalized before proceeding with preparation of the samples for sequencing.
For each microRNA sequenced, the number of sequences of the 5p strand and of the 3p strand of the microRNA was normalized to 10^6 sequences and converted to percentage abundance of expression for each of the microRNAs. The data were then normalized according to a linear model and an empirical Bayesian method using software R. For subsequent analyses, only the microRNAs were retained for which the percentage expression (or abundance) is greater than 1% of the total of the microRNAs in at least one culture condition, with a |Log2 Ratio| below 0.5 and an adjusted P-value below 0.05.

Row | Substance | Modulation (ratio of the level of intensity of expression in log2 in two stages of differentiation), D7 − D0 [log2] | Modulation (ratio of the level of intensity of expression in log2 in two stages of differentiation), FC − D7 [log2] | Modulation (ratio of the level of intensity of expression in log2 in two stages of differentiation), WD − D0 [log2] | Modulation (ratio of the level of intensity of expression in log2 in two stages of differentiation), WD − FC [log2] | Abundance (%), D0 [%] | Level of intensity of expression in log2, D0 [log2] | Abundance (%), D7 [%] | Level of intensity of expression in log2, D7 [log2] | Abundance (%), FC [%] | Level of intensity of expression in log2, FC [log2] | Abundance (%), WD [%] | Level of intensity of expression in log2, WD [log2] | Level of intensity of expression in log2 At the differentiated stage (WD) measured in HTS [log2]
1 | hsa-miR-449c: human miRNA, SEQ ID No. 201 (UAGGCAGUGUAUUGCUAGCGGCUGU; expressed or natural sequence; listed as Homo sapiens) | 2.59 | 7.44 | 9.44 | −0.59 | 0.00 | 1.54 | 0.00 | 4.13 | 0.32 | 11.57 | 0.20 | 10.98 | 10.98
2 | hsa-miR-1975: human miRNA, SEQ ID No. 15 (CCCCCACAACCGCGCUUGACUAGCU; expressed or natural sequence; listed as Homo sapiens) | 2.13 | 0.34 | 2.93 | 0.46 | 0.48 | 11.08 | 2.09 | 13.22 | 2.56 | 13.55 | 2.67 | 14.01 | 11.22
